{"source": "ChEMBL document CHEMBL1201862", "about": "“PubChem BioAssay data set” (2004)", "key": {"HEK293 [1]": {"system": "HEK293", "assay": "NOD1 signaling inhibitors, primary screen, cell-based, luminescence, uHTS (AID 1578)", "type": "functional", "conditions": "Homo sapiens"}, "HEK293 [2]": {"system": "HEK293", "assay": "cells", "type": "functional, cell-based", "conditions": "Homo sapiens"}, "HEK293 [3]": {"system": "HEK293", "assay": "cells", "type": "functional, cell-based", "conditions": "Homo sapiens", "remark": "listed apart in the source"}, "HEK293 [4]": {"system": "HEK293", "assay": "NOD2 signaling inhibitors in MDP-stimulated cells, cell-based, uHTS, luminescence (AID 2001)", "type": "functional", "conditions": "Homo sapiens"}, "[5]": {"assay": "cytotoxicity in HEK-293T cells, dose response, cytotoxicity control for BCR NF-kB inhibitor project, luminescence, B-cell screen hits (AID 489021);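 note: HEK-293T cells carrying an NF-kB luciferase reporter; cells exposed to compound for about 14 hours before viability readout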", "type": "functional, cell-based"}, "INS1": {"system": "INS1", "assay": "beta cell apoptosis inhibitors, cytokine rescue, dose response, luminescence, retest (AID 449756);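 note: cell death triggered by IL-1 beta plus TNF-alpha plus IFN-gamma mixture; protective hits raise ATP signal compared with cytokine alone wells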", "type": "functional, cell-based", "conditions": "Rattus norvegicus"}, "[6]": {"molecular_target": "T1, COUP transcription factor 2 (Homo sapiens, UniProt P24468)", "T1 sequence (P24468 whole entry)": "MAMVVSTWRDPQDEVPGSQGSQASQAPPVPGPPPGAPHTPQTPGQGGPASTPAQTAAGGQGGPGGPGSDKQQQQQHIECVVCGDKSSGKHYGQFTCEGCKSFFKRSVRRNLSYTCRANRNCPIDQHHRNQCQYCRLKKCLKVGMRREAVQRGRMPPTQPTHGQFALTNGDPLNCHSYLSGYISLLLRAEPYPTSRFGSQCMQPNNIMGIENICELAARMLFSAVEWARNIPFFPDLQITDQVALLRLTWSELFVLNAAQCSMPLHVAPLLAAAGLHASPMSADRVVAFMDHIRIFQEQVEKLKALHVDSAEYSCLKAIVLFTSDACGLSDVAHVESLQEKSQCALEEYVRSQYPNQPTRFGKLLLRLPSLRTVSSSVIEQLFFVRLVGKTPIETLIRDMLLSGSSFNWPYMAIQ", "assay": "Luminescence-based cell-based high throughput dose response assay to identify inhibitors of COUP-TFII (NR2F2).", "type": "functional"}, "Tumor necrosis factor": {"molecular_target": "Tumor necrosis factor (Homo sapiens, UniProt P01375)", "sequence (P01375 whole entry)": "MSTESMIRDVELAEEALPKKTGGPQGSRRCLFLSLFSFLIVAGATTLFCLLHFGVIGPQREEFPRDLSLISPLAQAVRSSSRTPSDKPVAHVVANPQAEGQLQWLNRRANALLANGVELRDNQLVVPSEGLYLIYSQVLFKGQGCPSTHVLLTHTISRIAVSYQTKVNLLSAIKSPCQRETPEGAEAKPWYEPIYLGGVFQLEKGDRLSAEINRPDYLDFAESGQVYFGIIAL", "assay": "TNFa-triggered NF-kB activation inhibitors, SAR follow-up, cell-based, revised (AID 2337)", "type": "functional"}, "[7]": {"molecular_target": "T2, Nucleotide-binding oligomerization domain-containing protein 1 (Homo sapiens, UniProt Q9Y239)", "T2 sequence (Q9Y239 whole entry)": "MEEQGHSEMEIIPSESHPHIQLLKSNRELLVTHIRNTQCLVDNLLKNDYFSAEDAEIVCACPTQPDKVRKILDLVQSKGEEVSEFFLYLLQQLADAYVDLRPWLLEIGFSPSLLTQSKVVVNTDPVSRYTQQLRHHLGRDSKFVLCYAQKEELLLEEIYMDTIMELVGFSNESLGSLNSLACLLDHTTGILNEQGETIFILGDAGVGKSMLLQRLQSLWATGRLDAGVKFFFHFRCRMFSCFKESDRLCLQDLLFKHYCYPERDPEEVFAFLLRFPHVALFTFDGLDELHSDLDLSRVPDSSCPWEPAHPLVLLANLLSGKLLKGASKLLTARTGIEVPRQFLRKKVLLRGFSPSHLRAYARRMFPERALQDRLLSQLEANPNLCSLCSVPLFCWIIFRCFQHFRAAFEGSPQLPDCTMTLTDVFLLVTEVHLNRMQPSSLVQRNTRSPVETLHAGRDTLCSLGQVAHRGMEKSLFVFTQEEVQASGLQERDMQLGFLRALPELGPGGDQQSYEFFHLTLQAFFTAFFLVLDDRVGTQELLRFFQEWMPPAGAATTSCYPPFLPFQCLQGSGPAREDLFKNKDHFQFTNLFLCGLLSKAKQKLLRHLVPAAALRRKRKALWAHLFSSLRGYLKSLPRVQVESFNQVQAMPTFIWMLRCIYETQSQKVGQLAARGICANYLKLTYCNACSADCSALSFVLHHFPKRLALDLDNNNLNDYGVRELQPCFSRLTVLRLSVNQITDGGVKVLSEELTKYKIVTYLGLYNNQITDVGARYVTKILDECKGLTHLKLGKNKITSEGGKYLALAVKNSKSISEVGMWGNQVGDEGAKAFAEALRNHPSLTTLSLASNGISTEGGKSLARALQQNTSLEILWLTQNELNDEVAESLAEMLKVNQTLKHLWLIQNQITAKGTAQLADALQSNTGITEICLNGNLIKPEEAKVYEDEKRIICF", "assay": "NOD1 signaling inhibitors, SAR follow-up, revised (AID 2333)", "type": "functional"}, "HEK293 [8]": {"system": "HEK293", "assay": "cells", "conditions": "Homo sapiens"}, "CAAX prenyl protease 2": {"molecular_target": "T3, CAAX prenyl protease 2 (Homo sapiens, UniProt Q9Y256)", "T3 sequence (Q9Y256 whole entry)": "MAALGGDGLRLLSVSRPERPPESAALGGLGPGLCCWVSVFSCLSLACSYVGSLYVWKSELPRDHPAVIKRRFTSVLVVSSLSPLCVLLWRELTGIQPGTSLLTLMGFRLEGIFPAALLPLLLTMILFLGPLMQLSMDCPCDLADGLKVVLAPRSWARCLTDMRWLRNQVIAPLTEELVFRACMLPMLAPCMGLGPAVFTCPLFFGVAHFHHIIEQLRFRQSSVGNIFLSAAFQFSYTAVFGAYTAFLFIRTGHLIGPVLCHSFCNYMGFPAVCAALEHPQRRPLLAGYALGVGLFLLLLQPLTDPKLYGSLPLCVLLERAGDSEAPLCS", "assay": "human Rce1 protease inhibitors, dose response, biochemical, yeast membranes, quenched-peptide fluorescence, cherry-pick (AID 588849)"}}, "note": "Calls of active or inactive are those of the source."}
{"smiles": "COc1ccc(NS(=O)(=O)c2ccc(-c3coc(C)n3)cc2)cc1OC", "values": [{"measurement": "EC50", "setting": "HEK293 [1]", "result": "1.1 µM (active)"}, {"measurement": "IC50", "setting": "HEK293 [2]", "result": "4.75 µM (active)"}, {"measurement": "IC50", "setting": "HEK293 [3]", "result": "> 20 µM (inactive)"}, {"measurement": "IC50", "setting": "HEK293 [4]", "result": "6.82 µM (active)"}, {"measurement": "IC50", "setting": "[5]", "result": "> 80 µM (inactive)"}, {"measurement": "AC50", "setting": "INS1", "result": "2.88 µM (active)"}, {"measurement": "IC50", "setting": "[6]", "result": "5.85 µM (active)"}]}
{"smiles": "COc1ccc(-c2nc(CN3CCN(c4ncnc5ccccc45)CC3)c(C)o2)cc1", "values": [{"measurement": "IC50", "setting": "Tumor necrosis factor", "result": "4.08 µM (active)"}, {"measurement": "IC50", "setting": "[7]", "result": "3.13 µM (active)"}, {"measurement": "IC50", "setting": "HEK293 [8]", "result": "11.9 µM (active)"}]}
{"smiles": "CCC(=O)N1c2ccc(S(=O)(=O)N3CCN(c4ccc(C(C)=O)cc4)CC3)cc2CC1C", "note": "(centres undefined)", "values": [{"measurement": "IC50", "setting": "Tumor necrosis factor", "result": "1.63 µM (active)"}, {"measurement": "IC50", "setting": "[7]", "result": "2 µM (active)"}, {"measurement": "IC50", "setting": "HEK293 [8]", "result": "14.7 µM (active)"}]}
{"smiles": "CS(=O)(=O)Cc1ccc(C(=O)N(CCc2ccccc2)Cc2ccccc2)cc1", "values": [{"measurement": "AC50", "setting": "CAAX prenyl protease 2", "result": "35.8 µM (active)"}]}
